Measurements: PubChem BioAssay AID330 (DTP/NCI, 2004)
Where “and” joins values, the source holds several entries; their conditions need not be identical. Identical values can stand only once. Toxic doses and inconclusive results are not listed.

Tested on: P388 leukemia ip, CD2F1 mice, survival T/C
Experiment: NCI In Vivo Anticancer Drug Screen. Data for tumor model P388 Leukemia (intraperitoneal) in CD2F1 (CDF1) mice
Conditions: endpoint: median survival time, higher = longer survival
In short: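 Mice carrying the transplanted tumor received test compound or vehicle. Survival was recorded in each group, and the value is the treated-group measurement divided by that of the vehicle-treated control group.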

[1] = dose: 50.0 mg/kg/injection, schedule: Q01DX005 (ip), vehicle: saline with Tween-80
[2] = dose: 100.0 mg/kg/injection, schedule: Q01DX005 (ip), vehicle: saline with Tween-80
[3] = dose: 200.0 mg/kg/injection, schedule: Q01DX005 (ip), vehicle: saline with Tween-80
[4] = dose: 100.0 mg/kg/injection, schedule: Q01DX001 (ip), vehicle: Klucel (hydroxypropylcellulose) (HPC)
[5] = dose: 200.0 mg/kg/injection, schedule: Q01DX001 (ip), vehicle: Klucel (hydroxypropylcellulose) (HPC)
[6] = dose: 50.0 mg/kg/injection, schedule: Q01DX009 (ip), vehicle: saline
[7] = dose: 100.0 mg/kg/injection, schedule: Q01DX009 (ip), vehicle: saline
[8] = dose: 12.5 mg/kg/injection, schedule: Q01DX009 (ip), vehicle: saline
[9] = dose: 25.0 mg/kg/injection, schedule: Q01DX009 (ip), vehicle: saline
[10] = dose: 50.0 mg/kg/injection, schedule: Q01DX005 (ip), vehicle: Klucel (hydroxypropylcellulose) (HPC)
[11] = dose: 100.0 mg/kg/injection, schedule: Q01DX005 (ip), vehicle: Klucel (hydroxypropylcellulose) (HPC)
[12] = dose: 200.0 mg/kg/injection, schedule: Q01DX005 (ip), vehicle: Klucel (hydroxypropylcellulose) (HPC)
[13] = dose: 60.0 mg/kg/injection, schedule: Q01DX005 (ip), vehicle: saline with Tween-80
[14] = dose: 120.0 mg/kg/injection, schedule: Q01DX005 (ip), vehicle: saline with Tween-80

## COC(=O)C12OCC34C(CC5C(C)=C(O)C(=O)CC5(C)C3C(O)C1O)OC(=O)C(OC(=O)C=C(C)C)C24 (centres undefined)
dose: 0.13 mg/kg/injection, schedule: Q01DX009 (ip), vehicle: saline
  T/C: 100 % of control
dose: 0.25 mg/kg/injection, schedule: Q01DX009 (ip), vehicle: saline
  T/C: 100 % of control
dose: 0.5 mg/kg/injection, schedule: Q01DX009 (ip), vehicle: saline
  T/C: 96 % of control
dose: 2.0 mg/kg/injection, schedule: Q01DX009 (ip), vehicle: saline
  T/C: 98 % of control
dose: 4.0 mg/kg/injection, schedule: Q01DX009 (ip), vehicle: saline
  T/C: 100 % of control
dose: 125.0 micrograms/kg/injection, schedule: Q01DX009 (ip), vehicle: saline + alcohol
  T/C: 104 % of control
dose: 250.0 micrograms/kg/injection, schedule: Q01DX009 (ip), vehicle: saline + alcohol
  T/C: 102 % of control
dose: 500.0 micrograms/kg/injection, schedule: Q01DX009 (ip), vehicle: saline + alcohol
  T/C: 104 % of control
dose: 1000.0 micrograms/kg/injection, schedule: Q01DX009 (ip), vehicle: saline + alcohol
  T/C: 95 % of control
dose: 2000.0 micrograms/kg/injection, schedule: Q01DX009 (ip), vehicle: saline + alcohol
  T/C: 93 % of control
dose: 4000.0 micrograms/kg/injection, schedule: Q01DX009 (ip), vehicle: saline + alcohol
  T/C: 102 % of control

## CC(C)=C(C)OS(=O)(=O)C(F)(F)F
dose: 50.0 mg/kg/injection, schedule: Q01DX009 (ip), vehicle: olive oil, sesame oil, peanut oil
  T/C: 102 % of control
dose: 100.0 mg/kg/injection, schedule: Q01DX009 (ip), vehicle: olive oil, sesame oil, peanut oil
  T/C: 114 % of control
dose: 200.0 mg/kg/injection, schedule: Q01DX009 (ip), vehicle: olive oil, sesame oil, peanut oil
  T/C: 96 % of control

## O=C(CO)C(OC1OC(CO)C(O)C(O)C1O)C(O)C(O)CO (centres undefined)
dose: 50.0 mg/kg/injection, schedule: Q01DX005 (ip), vehicle: saline
  T/C: 109 % of control
dose: 100.0 mg/kg/injection, schedule: Q01DX005 (ip), vehicle: saline
  T/C: 97 % of control
dose: 200.0 mg/kg/injection, schedule: Q01DX005 (ip), vehicle: saline
  T/C: 109 % of control

## COc1cc2c(OC)c(c1)CCc1cc(OC)c(cc1OC)CC2
[1]
  T/C: 97 % of control
[2]
  T/C: 97 % of control
[3]
  T/C: 94 % of control

## CC1=C(C)C2C(=O)NC(=O)NC12 (centres undefined)
[4]
  T/C: 100 % of control
[5]
  T/C: 91 % of control

## O=C(Nc1ccccc1C(F)(F)F)c1cccc(Cl)c1
dose: 100.0 mg/kg/injection, schedule: Q04DX003 (ip), vehicle: saline + alcohol
  T/C: 109 % of control
dose: 200.0 mg/kg/injection, schedule: Q04DX003 (ip), vehicle: saline + alcohol
  T/C: 100 % of control
dose: 400.0 mg/kg/injection, schedule: Q04DX003 (ip), vehicle: saline + alcohol
  T/C: 100 % of control

## CCCCCCCCCCCCCCC[N+]1([O-])CCOCC1
[6]
  T/C: 90 % of control
[7]
  T/C: 91 % of control

## O=c1[nH]c(=O)n(C2CC(O)C(CO)O2)cc1S (centres undefined)
[8]
  T/C: 99 % of control and 101 % of control and 105 % of control
[9]
  T/C: 100 % of control (2×) and 111 % of control
[6]
  T/C: 101 % of control and 111 % of control and 118 % of control

## CCCCN1C(=O)/C(=C/c2ccccc2OC)SC1=S
[10]
  T/C: 98 % of control
[11]
  T/C: 94 % of control

## NC(=O)C1CC2(c3ccccn3)c3ccccc3C1c1ccccc12 (centres undefined)
[10]
  T/C: 96 % of control
[11]
  T/C: 90 % of control
[12]
  T/C: 88 % of control

## CCCCCC(=O)SCC(=O)OCC(=O)[C@]1(O)Cc2c(O)c3c(c(O)c2[C@@H](OC2CC(N)C(O)C(C)O2)C1)C(=O)c1c(OC)cccc1C3=O (some centres undefined)
dose: 0.78 mg/kg/injection, schedule: Q01DX009 (ip), vehicle: water
  T/C: 169 % of control
dose: 1.56 mg/kg/injection, schedule: Q01DX009 (ip), vehicle: water
  T/C: 174 % of control and 179 % of control
dose: 3.13 mg/kg/injection, schedule: Q01DX009 (ip), vehicle: water
  T/C: 194 % of control and 209 % of control
dose: 6.25 mg/kg/injection, schedule: Q01DX009 (ip), vehicle: water
  T/C: 104 % of control

## CC(C)N[P+](c1ccccc1)(c1ccccc1)c1ccccc1
dose: 25.0 mg/kg/injection, schedule: Q04DX003 (ip), vehicle: saline
  T/C: 96 % of control

## CC(=O)C1(O)Cc2c(O)c3c(c(O)c2C(OC2CC(N)C(O)C(C)O2)C1C)C(=O)c1ccccc1C3=O (centres undefined)
dose: 0.6 mg/kg/injection, schedule: Q04DX003 (ip), vehicle: water
  T/C: 100 % of control
dose: 1.2 mg/kg/injection, schedule: Q04DX003 (ip), vehicle: water
  T/C: 108 % of control
dose: 2.4 mg/kg/injection, schedule: Q04DX003 (ip), vehicle: water
  T/C: 108 % of control
dose: 4.8 mg/kg/injection, schedule: Q04DX003 (ip), vehicle: water
  T/C: 106 % of control
dose: 9.6 mg/kg/injection, schedule: Q04DX003 (ip), vehicle: water
  T/C: 118 % of control

## c1ccc(CN=C(Nc2ccc(C3=NCCN3)cc2)c2cccc(C(=NCc3ccccc3)Nc3ccc(C4=NCCN4)cc3)c2)cc1
[1]
  T/C: 104 % of control
[2]
  T/C: 104 % of control
[3]
  T/C: 104 % of control

## O=C(Nc1ccc(Cl)cc1)Nc1nnc2nc(C(C(=O)c3cccs3)c3nc4nnc(NC(=O)Nc5ccc(Cl)cc5)n4[nH]c3=O)c(=O)[nH]n12
[13]
  T/C: 91 % of control
[14]
  T/C: 94 % of control

## COC(=O)C1=NC(c2ccccc2)(c2ccccc2)C(C(=O)OC)=C(C(=O)OC)P(c2ccccc2)(c2ccccc2)=C1C(=O)OC
[10]
  T/C: 88 % of control
[11]
  T/C: 92 % of control
[12]
  T/C: 110 % of control

## O=c1cc(CC(O)c2ccccc2)c2ccccc2[nH]1 (centres undefined)
dose: 100.0 mg/kg/injection, schedule: Q04DX002 (ip), vehicle: saline with Tween-80
  T/C: 95 % of control
dose: 200.0 mg/kg/injection, schedule: Q04DX002 (ip), vehicle: saline with Tween-80
  T/C: 94 % of control
dose: 400.0 mg/kg/injection, schedule: Q04DX002 (ip), vehicle: saline with Tween-80
  T/C: 91 % of control

## O=C1NC(Cc2ccccc2)C(=O)N2CSCC12 (centres undefined)
[4]
  T/C: 94 % of control
[5]
  T/C: 99 % of control
dose: 400.0 mg/kg/injection, schedule: Q01DX001 (ip), vehicle: Klucel (hydroxypropylcellulose) (HPC)
  T/C: 105 % of control

## C/C(=C\CCC(C)C1CCC2(C)C3=C(CCC12C)C1(C)CCC(O)C(C)(C)C1CC3)C(=O)O (centres undefined)
dose: 12.5 mg/kg/injection, schedule: Q01DX005 (ip), vehicle: DMSO
  T/C: 103 % of control
dose: 25.0 mg/kg/injection, schedule: Q01DX005 (ip), vehicle: DMSO
  T/C: 101 % of control
dose: 50.0 mg/kg/injection, schedule: Q01DX005 (ip), vehicle: DMSO
  T/C: 88 % of control
dose: 100.0 mg/kg/injection, schedule: Q01DX005 (ip), vehicle: DMSO
  T/C: 91 % of control

## COc1ccc(C2C(C#N)C(=O)NC(=O)C2C#N)cc1OC (centres undefined)
dose: 50.0 mg/kg/injection, schedule: Q01DX009 (ip), vehicle: Klucel (hydroxypropylcellulose) (HPC)
  T/C: 98 % of control
dose: 100.0 mg/kg/injection, schedule: Q01DX009 (ip), vehicle: Klucel (hydroxypropylcellulose) (HPC)
  T/C: 107 % of control
dose: 200.0 mg/kg/injection, schedule: Q01DX009 (ip), vehicle: Klucel (hydroxypropylcellulose) (HPC)
  T/C: 111 % of control

## COc1cc(CC(CC(=O)c2ccc3c(c2)OCO3)C(=O)O)cc(OC)c1OC (centres undefined)
[10]
  T/C: 94 % of control
[11]
  T/C: 99 % of control
[12]
  T/C: 94 % of control

## O=C(O)CN(CCN(CC(=O)O)CC(=O)O)CC(=O)O.[Cd+2]
dose: 1.56 mg/kg/injection, schedule: Q01DX009 (ip), vehicle: saline
  T/C: 97 % of control
dose: 3.12 mg/kg/injection, schedule: Q01DX009 (ip), vehicle: saline
  T/C: 91 % of control
dose: 6.25 mg/kg/injection, schedule: Q01DX009 (ip), vehicle: saline
  T/C: 91 % of control and 94 % of control
[8]
  T/C: 92 % of control and 95 % of control
[9]
  T/C: 92 % of control and 97 % of control
[6]
  T/C: 88 % of control

## c1ccc(Cc2ccccc2)cc1
dose: 50.0 mg/kg/injection, schedule: Q01DX009 (ip), vehicle: saline with Tween-80
  T/C: 105 % of control
dose: 100.0 mg/kg/injection, schedule: Q01DX009 (ip), vehicle: saline with Tween-80
  T/C: 110 % of control
dose: 200.0 mg/kg/injection, schedule: Q01DX009 (ip), vehicle: saline with Tween-80
  T/C: 109 % of control

## COc1ccc(C2Cc3cc(OC)c(OC)cc3C(c3ccccc3)N2)cc1OC (centres undefined)
[13]
  T/C: 86 % of control
[14]
  T/C: 88 % of control
dose: 240.0 mg/kg/injection, schedule: Q01DX005 (ip), vehicle: saline with Tween-80
  T/C: 89 % of control

## CCN(CC)CCOC(=O)c1ccc(NC(=O)Nc2ccc(C(=O)OCCN(CC)CC)cc2)cc1
[9]
  T/C: 102 % of control
[6]
  T/C: 107 % of control
[7]
  T/C: 118 % of control
